Biological target: T1, M327I-mutant Menin (Homo sapiens, UniProt O00255, M322I)
T1 construct: made in house; host or cells: E. coli BL21-DE3 Rosetta
T1 sequence (O00255 1-615 isoform O00255-1 M327I): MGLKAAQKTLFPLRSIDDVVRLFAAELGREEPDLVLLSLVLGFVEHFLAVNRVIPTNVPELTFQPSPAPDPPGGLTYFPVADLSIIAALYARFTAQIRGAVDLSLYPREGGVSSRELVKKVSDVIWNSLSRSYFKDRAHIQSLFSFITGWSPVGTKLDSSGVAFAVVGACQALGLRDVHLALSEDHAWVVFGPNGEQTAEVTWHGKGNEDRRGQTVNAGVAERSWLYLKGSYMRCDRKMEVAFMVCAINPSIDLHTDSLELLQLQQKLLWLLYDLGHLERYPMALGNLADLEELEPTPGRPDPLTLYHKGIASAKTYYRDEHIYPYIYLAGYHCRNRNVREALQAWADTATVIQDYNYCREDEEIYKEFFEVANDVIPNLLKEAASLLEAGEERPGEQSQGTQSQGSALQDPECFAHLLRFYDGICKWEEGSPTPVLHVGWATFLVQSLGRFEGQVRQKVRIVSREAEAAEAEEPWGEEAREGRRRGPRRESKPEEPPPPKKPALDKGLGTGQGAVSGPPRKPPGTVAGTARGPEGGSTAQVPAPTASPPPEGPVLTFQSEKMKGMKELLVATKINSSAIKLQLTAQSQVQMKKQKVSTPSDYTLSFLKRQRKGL
Test: competitive MLL1 fluorescence polarization (FP) binding assay, displacement of MLL1 peptide
Protocol: The following peptides were synthesized by GenScript: N-terminal FITC-conjugated MLL14-43(C-A) peptide probe ([…]) with a C-A modification that improves binding to Menin^19, MLL14-43(C-A) ([…]) and MLL14-43(WT) ([…]). N-terminally FITC-labelled and unmodified MLL2 peptides (MLL2(15-48) […]) were synthesized at Genscript. To derive the FITC-MLL14-43(C-A) peptide Kd. FITC-conjugated MLL14-43(C-A) peptide probe at final concentration of 1 nM was mixed with increasing concentration of purified StrepII-Avi-TEV-Menin (5 μM final top concentration, 2-fold, 23-point dilution and a buffer control) in an assay buffer (50 mM Tris pH 7.5, 200 mM NaCl, 0.1% Pluronic F-68 solution (Sigma)) in 384-well microplates at 15 μL assay volume (Corning, 4514) and incubated for 30 min at room temperature (RT). For all assays change in fluorescence polarization was monitored using a PHERAstar FS microplate reader (BMG Labtech). The FITC-conjugated MLL14-43(C-A) peptide Kd was obtained from a fit in GraphPad Prism 9 using one site total model and averaged from three independent runs with three replicates (n=3, FIG. 8). In competitive titration experiments Menin proteins (1 nM WT, 1 nM M327I or 3 nM for T349M) and 1 nM FITC-conjugated MLL14-43(C-A) peptide probe were incubated in an assay buffer for 30 min. SNDX-5613 was then dispensed to 384-well microplate (Corning, 4514) containing 15 μL of the assay mix using D300e Digital Dispenser (HP) and normalized to 1% DMSO followed by 90 min incubation. The fluorescence polarization was monitored by PHERAstar FS microplate reader (BMG Labtech). The MLL14-43(WT) and MLL14-43(C-A) peptide titrations were performed by addition of 7.5 μL of 2-fold 23-point serial dilution into 7.5 μL of assay mix with the final concentrations of 1 nM FITC-conjugated MLL4-43 peptide probe, 1 nM WT Menin or 1 nM Menin M327I or 3 nM Menin T349M in assay buffer. The fluorescence polarization was monitored by PHERAstar FS microplate reader (BMG Labtech). For analysis of the competitive titration experiments the last 10 cycles of the data were averaged to obtain technical replicates. Data from three independent replicates (n=3) was plotted and IC50 values estimated using variable slope equation in GraphPad Prism 9. The calculation of Ki values was performed using Ki calculator available at websites.umich.edu/˜shaomengwanglab/software/calc_ki/index.html^23.

| Structure (SMILES) | effect of M327I on binding (M327I mutant Menin) | increase of IC50-value for MLL-displacement compared to WT Menin (M327I mutant vs WT Menin) | reduction in affinity, fluorescence polarization (MEN1-M327I compared to MEN1-WT) |
| --- | --- | --- | --- |
| CNc1nc(NC2CCN(Cc3ccc4c(cc(C#N)n4CC45CC(NC=O)(C4)C5)c3C)CC2)c2cc(CC(F)(F)F)sc2n1 [MI-3454] | severely affected |  |  |
| CCN(C(=O)c1cc(F)ccc1Oc1cncnc1N1CC2(CCN(C[C@H]3CC[C@H](NS(=O)(=O)CC)CC3)CC2)C1)C(C)C [SNDX-5613, revumenib] |  | 51 fold | over 50 fold |

— US20260185163A1, “MEN1 MUTATIONS AND USES THEREOF” (DANA-FARBER CANCER INSTITUTE, INC., priority 2022, published 2026)
